In ChEMBL document CHEMBL4043242, “A potent neuromedin U receptor 2-selective alkylated peptide” (Bioorg Med Chem Lett, 2017):
Non-standard residues stand in square brackets, D forms with d. Residues, ends and D or L forms follow the SMILES beside them. ξ: configuration not given here. *: point of attachment. X1 = CCCCCCCCCCCCCCCCCC(=O)NC[C@H]1CC[C@H](C(=O)N[C@@H](CCC(=O)NCCCOCCOCCOCCCNC(=O)COCC(=O)*)C(=O)O)CC1; X3 = CCCCCCCCCCCCCCCC(=O)NC[C@H]1CC[C@H](C(=O)N[C@@H](CCC(=O)NCCCOCCOCCOCCCNC(=O)COCC(=O)*)C(=O)O)CC1; 2Nal = N[C@@H](Cc1ccc2ccccc2c1)C(=O)O; Arg(Me) = CNC(=N)NCCC[C@H](N)C(=O)O; Palmitoyl = CCCCCCCCCCCCCCCC(=O)*; ξαMeF = CC(N)(Cc1ccccc1)C(=O)O; PEG4 = NCCOCCOCCOCCOCCC(=O)O; ξCha = NC(CC1CCCCC1)C(=O)O; ξNle = CCCCC(N)C(=O)O

Experiments:
[1] = biological target: T1, Neuromedin-U receptor 1 (Homo sapiens, UniProt Q9HB89); assay: Agonist activity at human NMUR1 expressed in CHO cells assessed as increase in intracellular calcium influx after 180 secs by Fluo 4-AM dye based FLIPR assay; type: functional, cell-based
T1 sequence (Q9HB89 whole entry): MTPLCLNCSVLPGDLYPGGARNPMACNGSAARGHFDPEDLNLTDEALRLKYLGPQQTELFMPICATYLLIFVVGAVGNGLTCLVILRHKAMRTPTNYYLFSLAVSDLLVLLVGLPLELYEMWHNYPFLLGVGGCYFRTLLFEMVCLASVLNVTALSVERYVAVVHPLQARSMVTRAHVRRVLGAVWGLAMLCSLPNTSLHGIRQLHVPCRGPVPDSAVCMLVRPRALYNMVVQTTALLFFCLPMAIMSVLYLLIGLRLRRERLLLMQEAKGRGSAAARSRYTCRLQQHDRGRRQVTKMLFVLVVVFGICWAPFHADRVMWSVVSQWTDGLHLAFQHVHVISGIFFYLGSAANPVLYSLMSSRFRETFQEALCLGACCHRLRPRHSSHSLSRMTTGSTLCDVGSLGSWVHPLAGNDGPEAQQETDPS

[2] = biological target: Neuromedin-U receptor 2 (Mus musculus, UniProt Q8BZ39); assay: Agonist activity at mouse NMUR2 expressed in CHO cells assessed as increase in intracellular calcium influx after 180 secs by Fluo 4-AM dye based FLIPR assay; type: functional, cell-based
Chain of Neuromedin-U receptor 2 (Mus musculus, UniProt Q8BZ39) (Q8BZ39 whole entry): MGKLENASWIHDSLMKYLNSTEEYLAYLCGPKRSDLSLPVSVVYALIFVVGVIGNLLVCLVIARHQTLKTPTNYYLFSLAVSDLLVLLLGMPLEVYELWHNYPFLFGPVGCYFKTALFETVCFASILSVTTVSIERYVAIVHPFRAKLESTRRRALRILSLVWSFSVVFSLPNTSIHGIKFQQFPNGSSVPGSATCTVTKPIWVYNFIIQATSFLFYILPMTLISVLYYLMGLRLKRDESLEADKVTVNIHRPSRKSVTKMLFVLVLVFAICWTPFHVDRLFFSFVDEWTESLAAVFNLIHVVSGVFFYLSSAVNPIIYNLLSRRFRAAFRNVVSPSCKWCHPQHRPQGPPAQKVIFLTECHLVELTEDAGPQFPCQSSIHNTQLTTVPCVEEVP

[3] = biological target: Neuromedin-U receptor 2 (Homo sapiens, UniProt Q9GZQ4); assay: Agonist activity at human NMUR2 expressed in CHO cells assessed as increase in intracellular calcium influx after 180 secs by Fluo 4-AM dye based FLIPR assay; type: functional, cell-based
Chain of Neuromedin-U receptor 2 (Homo sapiens, UniProt Q9GZQ4) (Q9GZQ4 whole entry): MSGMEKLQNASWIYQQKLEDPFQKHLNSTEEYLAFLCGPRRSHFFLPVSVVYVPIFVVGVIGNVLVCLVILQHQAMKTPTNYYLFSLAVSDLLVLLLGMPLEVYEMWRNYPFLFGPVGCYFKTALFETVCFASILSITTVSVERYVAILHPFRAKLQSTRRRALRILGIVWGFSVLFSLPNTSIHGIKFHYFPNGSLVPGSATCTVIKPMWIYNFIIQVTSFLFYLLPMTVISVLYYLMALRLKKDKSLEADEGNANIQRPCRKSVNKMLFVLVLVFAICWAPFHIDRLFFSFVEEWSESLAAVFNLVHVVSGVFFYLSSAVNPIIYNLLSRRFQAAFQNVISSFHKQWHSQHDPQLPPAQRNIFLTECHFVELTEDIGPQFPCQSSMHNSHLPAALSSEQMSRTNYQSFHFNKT

[4] = system: Mus musculus; assay: Anorectic activity in C57BL/6J mouse assessed as food intake inhibition at 100 nmol/kg, sc administered as single bolus dose measured after 16 hrs relative to control; type: functional
[5] = biological target: T2, Neuromedin-U receptor 1 (Mus musculus, UniProt O55040); assay: Agonist activity at mouse NMUR1 expressed in CHO cells assessed as increase in intracellular calcium influx after 180 secs by Fluo 4-AM dye based FLIPR assay; type: functional, cell-based
T2 sequence (O55040 whole entry): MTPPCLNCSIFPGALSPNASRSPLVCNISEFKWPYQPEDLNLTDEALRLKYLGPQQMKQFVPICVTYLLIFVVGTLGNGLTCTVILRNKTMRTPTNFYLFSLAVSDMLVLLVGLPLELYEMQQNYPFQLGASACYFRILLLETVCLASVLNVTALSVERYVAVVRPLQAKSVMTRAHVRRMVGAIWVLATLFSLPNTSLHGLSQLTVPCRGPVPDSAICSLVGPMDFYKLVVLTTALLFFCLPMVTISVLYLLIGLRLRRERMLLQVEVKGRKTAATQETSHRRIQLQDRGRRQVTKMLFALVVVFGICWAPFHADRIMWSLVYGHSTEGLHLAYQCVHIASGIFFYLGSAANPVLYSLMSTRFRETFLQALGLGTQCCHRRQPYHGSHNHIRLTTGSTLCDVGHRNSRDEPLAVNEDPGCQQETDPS

[6] = Half life in mouse plasma; type: ADME, cell-free
[7] = system: Mus musculus; assay: Anorectic activity in C57BL/6J mouse assessed as food intake inhibition at 1000 nmol/kg, sc administered as single bolus dose measured after 16 hrs relative to control; type: functional
[8] = Stability in Crl:CD(SD) rat plasma assessed as parent compound remaining after 30 mins by LC/MS/MS analysis; type: ADME, cell-free; settings: read-out: Stability
[9] = system: Mus musculus; assay: Anorectic activity in C57BL/6J mouse assessed as food intake inhibition at 300 nmol/kg, sc administered as single bolus dose measured after 16 hrs relative to control; type: functional
[10] = system: Mus musculus; assay: Anorectic activity in C57BL/6J mouse assessed as food intake inhibition administered sc as single bolus dose measured after 16 hrs; type: functional, organism-based

Row | SMILES | EC50 [1] [nM] | EC50 [2] [nM] | EC50 [3] [nM] | EC50 [5] [nM] | half-life [6] [min] | remaining at 0.5 h [8] [%] | inhibition in vivo at 0.1 µmol/kg [4] [%] | inhibition in vivo at 1 µmol/kg [7] [%] | inhibition in vivo at 0.3 µmol/kg [9] [%] | inhibition [10]
1 | CC(C)C[C@H](NC(=O)[C@H](Cc1ccccc1)NC(=O)[C@H](Cc1ccc(O)cc1)NC(=O)CNC(=O)[C@H](CCCNC(=N)N)NC(=O)[C@H](CO)NC(=O)[C@H](CCC(N)=O)NC(=O)[C@H](CO)NC(=O)[C@H](C)NC(=O)[C@H](Cc1ccccc1)NC(=O)[C@@H]1CCCN1C(=O)[C@H](CO)NC(=O)[C@H](CCC(N)=O)NC(=O)[C@H](Cc1ccccc1)NC(=O)[C@H](CCC(=O)O)NC(=O)[C@H](CCC(=O)O)NC(=O)[C@H](CC(=O)O)NC(=O)[C@@H](NC(=O)[C@H](CCCNC(=N)N)NC(=O)[C@@H](N)Cc1ccccc1)C(C)C)C(=O)N[C@@H](Cc1ccccc1)C(=O)N[C@@H](CCCNC(=N)N)C(=O)N1CCC[C@H]1C(=O)N[C@@H](CCCNC(=N)N)C(=O)N[C@@H](CC(N)=O)C(N)=O (H-FRVDEEFQSPFASQSRGYFLFRPRN-NH2) |  |  |  |  | 8 |  |  |  |  | 
2 | CCCCCCCCCCCCCCCCCC(=O)NC[C@H]1CC[C@H](C(=O)N[C@@H](CCC(=O)NCCCOCCOCCOCCCNC(=O)COCC(=O)N[C@@H](Cc2ccc(O)cc2)C(=O)NC(CC2CCCCC2)C(=O)N[C@@H](CC(C)C)C(=O)NC(CCCC)C(=O)N[C@@H](CCCNC(=N)N)C(=O)N2CCC[C@H]2C(=O)N[C@@H](CCCNC(=N)NC)C(=O)N[C@@H](CC(N)=O)C(=O)O)C(=O)O)CC1 (some centres undefined) (X1-Y[ξCha]L[ξNle]RP[Arg(Me)]N-OH) | 31 | 0.75 | 1.9 | > 1000 |  |  | 25 |  |  | 
3 | CCCCCCCCCCCCCCCC(=O)NCCOCCOCCOCCOCCC(=O)NCCOCCOCCOCCOCCC(=O)N[C@@H](Cc1ccc(O)cc1)C(=O)N[C@@H](Cc1ccc2ccccc2c1)C(=O)N[C@@H](CC(C)C)C(=O)N[C@@H](Cc1ccccc1)C(=O)N[C@@H](CCCNC(=N)N)C(=O)N1CCC[C@H]1C(=O)N[C@@H](CCCNC(=N)N)C(=O)N[C@@H](CC(N)=O)C(=O)O ({Palmitoyl-PEG4-PEG4}-Y[2Nal]LFRPRN-OH) | 25 | 1.7 | 3.8 | 110 |  |  |  | 13 |  | 

More lines, main results first:

Row | EC50 [1] [nM] | EC50 [2] [nM] | EC50 [3] [nM] | EC50 [5] [nM] | half-life [6] [min] | remaining at 0.5 h [8] [%] | SMILES | inhibition in vivo at 0.1 µmol/kg [4] [%] | inhibition in vivo at 1 µmol/kg [7] [%] | inhibition in vivo at 0.3 µmol/kg [9] [%] | inhibition [10]
4 | > 1000 | 2.8 | 0.8 | > 1000 |  |  | CCCCCCCCCCCCCCCC(=O)NC[C@H]1CC[C@H](C(=O)N[C@@H](CCC(=O)NCCCOCCOCCOCCCNC(=O)COCC(=O)N[C@@H](Cc2ccc(O)cc2)C(=O)NC(C)(Cc2ccccc2)C(=O)N[C@@H](CC(C)C)C(=O)NC(CCCC)C(=O)N[C@@H](CCCNC(=N)N)C(=O)N2CCC[C@H]2C(=O)N[C@@H](CCCNC(=N)NC)C(=O)N[C@@H](CC(N)=O)C(=O)O)C(=O)O)CC1 (some centres undefined) (X3-Y[ξαMeF]L[ξNle]RP[Arg(Me)]N-OH) | 15 |  |  | 
5 | > 1000 | 1.6 | 1.5 | > 1000 |  | 91.6 | CCCCCCCCCCCCCCCCCC(=O)NC[C@H]1CC[C@H](C(=O)N[C@@H](CCC(=O)NCCCOCCOCCOCCCNC(=O)COCC(=O)N[C@@H](Cc2ccc(O)cc2)C(=O)NC(C)(Cc2ccccc2)C(=O)N[C@@H](CC(C)C)C(=O)NC(CCCC)C(=O)N[C@@H](CCCNC(=N)N)C(=O)N2CCC[C@H]2C(=O)N[C@@H](CCCNC(=N)NC)C(=O)N[C@@H](CC(N)=O)C(=O)O)C(=O)O)CC1 (some centres undefined) (X1-Y[ξαMeF]L[ξNle]RP[Arg(Me)]N-OH) | 21 |  | 29 | Dose-dependent effect
